Assay results: US20180078656A1, “CRYPTOPHYCIN-BASED ANTIBODY-DRUG CONJUGATES WITH NOVEL SELF-IMMOLATIVE LINKERS” (priority 2015, published 2018)
Structures can show the parent of a compound that is named as a salt. Where two headings read alike, the source gives them in different places.

Columns and labels:
SK-BR3 cells = assay: Cell viability assay (CellTiter-Glo), SK-BR3; format: cell-based; details: read-out: SK-BR3 CC50
Method: (§1) Tumor cell lines (breast carcinoma cell lines SKBR-3 and MCF7 and colon carcinoma cell line HCT116) were obtained from American Type Culture Collection and were grown according to standard protocols. […] The effects of the cryptophycin-55-glycinate ADC conjugate on tumor cell viability were assessed using the CellTiter-Glo® Luminescent Cell Viability Assay (Promega), according to the manufacturer protocol. […] Cells were plated in black-walled 96-well plates (5000 cells per well for SKBR-3 and MCF7; 2000 cells per well for HCT116) and allowed to adhere overnight at 37° C. in a humidified atmosphere of 5% CO2. […] Five to eight triplicate datapoints were recorded for each experimental condition. At the end of the incubation luminescence was measured using a Perkin Elmer Wallac 1450 MicroBeta TriLux detector. Compound cytotoxicity was evaluated in comparison to cells treated with PBS (antibodies) or 0.1% DMSO (compounds). CC50 values were calculated by fitting viability data with a four-parameter logistic equation using a Kaleidagraph software.

H69 cells = assay: Cell viability assay (CellTiter-Glo), H69 wild type; format: cell-based; details: wild type H69, 120 h incubation
Method: (§2) H69 cells and the drug-resistant counterpart H69AR were obtained from the American Type Culture Collection and were grown according to standard protocols. The effects of cryptophycin and cryptophycin conjugates on the viability of wild type and drug resistant tumor cell lines were assessed using the CellTiter-Glo® Luminescent Cell Viability Assay (Promega), according to the manufacturer protocol. Cells were plated in black-walled 96-well plates (5000 cells per well) and allowed to adhere overnight at 37° C. in a humidified atmosphere of 5% CO2. Medium was then removed and replaced by fresh culture medium containing increasing concentrations of cryptophycin analogs or doxorubicin as a control. Cells were incubated with compounds for 120 h at 37° C. in 5% CO2. Eight triplicate 1:3 serial dilution datapoints were recorded for each experimental condition (from […] to 10 nM for CRY55-Gly, CRY55-Gly-LINKER73 and CRY55-Gly-LINKER76, from 1.2 nM to 2700 nM for doxorubicin). At the end of the incubation, luminescence was measured using a Perkin Elmer Wallac 1450 MicroBeta TriLux detector. Compound cytotoxicity was evaluated in comparison to cells treated with 0.1% DMSO.

MCF7 cells [1] = assay: Cell viability assay (CellTiter-Glo), MCF7, 96 h; format: cell-based, human; details: read-out: MCF7 CC50
Method: as §1

HCT116 cells = assay: Cell viability assay (CellTiter-Glo), HCT116; format: cell-based; details: read-out: HCT116 CC50
Method: as §1

H69AR cells = assay: Cell viability assay (CellTiter-Glo), drug-resistant H69AR; format: cell-based; details: for IC50: 120 h incubation
Method: as §2

AR42J cells = assay: Cell viability assay (CellTiter-Glo), AR42J, 120 h; format: cell-based, rat; details: 120 h incubation; for IC50: SSTR2-high AR42J
Method: (§3) Tumor cell lines (the rat pancreatic tumor cell line AR42J and the human breast carcinoma cell line MCF7) were obtained from the American Type Culture Collection and were grown according to standard protocols.
(§4) The effects of the cryptophycin-55-glycinate-octreotide conjugate of Example 5 on the viability of the tumor cell lines AR42J (STTR2^high) and MCF7 (SSTR2^low) were assessed using the CellTiter-Glo® Luminescent Cell Viability Assay (Promega), according to the manufacturer protocol. Cells were plated in black-walled 96-well plates (5000 cells per well) and allowed to adhere overnight at 37° C. in a humidified atmosphere of 5% CO2. Medium was then removed and replaced by fresh culture medium containing increasing concentrations of cryptophycin-55-glycinate-octreotide conjugate (CRY55-Gly-Oct), unconjugated octreotide, or free cryptophycin-55-glycinate (CRY55-Gly), and the cells were incubated for 120 h at 37° C. in 5% CO2. Nine triplicate 1:3 serial dilution datapoints were recorded for each experimental condition (from 0.0015 nM to 10 nM for CRY55-Gly and CRY55-Gly-Oct, from 0.0015 uM to 10 uM for the unconjugated octreotide). At the end of the incubation luminescence was measured using a Perkin Elmer Wallac 1450 MicroBeta TriLux detector. Compound cytotoxicity was evaluated in comparison to cells treated with 0.1% DMSO. IC50 values were calculated by fitting viability data with a four-parameter logistic equation using a Kaleidagraph software. Residual cell viability plots obtained upon treatment of the AR42J and MCF7 cells with the different compounds are shown in FIG. 3 and FIG. 4, respectively.

MCF7 cells [2] = assay: Cell viability assay (CellTiter-Glo), MCF7, 120 h; format: cell-based, human; details: for IC50: read-out: IC50, MCF7
Method: as §3, §4

Which CC50 (SK-BR3 cells; Homo sapiens, SK-BR-3, 96 h) does the source give for `COc1ccc(C[C@H]2NC(=O)/C=C/C[C@@H]([C@H](C)[C@@H](OC(=O)CN)[C@@H](Cl)c3ccccc3)OC(=O)[C@H](CC(C)C)OC(=O)C(C)(C)CNC2=O)cc1Cl` [Cry-55-Gly, Cryptophycin-55-glycinate trifluoroacetate] here?
The CC50 was 0.09 nM.

And the IC50 (H69 cells; Homo sapiens, NCI-H69)?
Its IC50 is 0.09 nM.

And the CC50 (MCF7 cells [1]; Homo sapiens, MCF7, 96 h)?
The CC50 was 0.25 nM.

And the CC50 (HCT116 cells; Homo sapiens, HCT-116, 96 h)?
Its CC50 is 0.19 nM.

What about the IC50 (H69AR cells; Homo sapiens) of the same compound?
Its IC50 is 0.15 nM.

And the IC50 (AR42J cells; Rattus norvegicus, AR-42J)?
Its IC50 is 0.8 nM.

And the IC50 (MCF7 cells [2]; Homo sapiens, MCF7, 120 h)?
Its IC50 is 0.2 nM.

For `C[C@@H](O)[C@@H]1NC(=O)[C@H](CCCCN)NC(=O)[C@@H](Cc2c[nH]c3ccccc23)NC(=O)[C@H](Cc2ccccc2)NC(=O)[C@@H](NC(=O)[C@H](N)Cc2ccccc2)CSSC[C@@H](C(=O)N[C@H](CO)[C@@H](C)O)NC1=O` [Octreotide], which “inhibition of AR42J viability” value (AR42J cells; up to 10 uM) is on record?
Its value is 30% inh. up to 10 uM.

And the “IC50, MCF7 (in words)” value (MCF7 cells [2]; SSTR2-low MCF7, 120 h, tested […] to 10 uM)?
Its value is “completely ineffective”.

“Azide-TEG-Val-Cit-Gly-Pro-Gly-cryptophycin-55 [Example 5]” was tested. Which IC50 (H69 cells) did it give?
Its IC50 is 1.7 nM.

And the IC50 (H69AR cells)?
Its IC50 is 3.6 nM.

For “Maleimide-PEG-Val-Cit-Pro-Gly-Cryptophycin-55-glycinate [Cry-55-Linker]”, which CC50 (SK-BR3 cells; HER2-positive SK-BR3, 96 h incubation) is on record?
The CC50 was 2.6 nM.

What about the CC50 (MCF7 cells [1]; Her2-low MCF7, 96 h incubation) of the same compound?
The CC50 was 6.1 nM.

And the CC50 (HCT116 cells; Her2-low HCT116, 96 h incubation)?
The CC50 was 4.4 nM.

For `COc1cccc2c1C(=O)c1c(O)c3c(c(O)c1C2=O)C[C@@](O)(C(=O)CO)C[C@@H]3O[C@H]1C[C@H](N)[C@H](O)[C@H](C)O1` [doxorubicin], which “effect on H69AR cell viability (in words)” value (H69AR cells; 120 h, 1.2 nM to 2700 nM) is on record?
The value was “only minor effects”.

`COc1ccc(C[C@H]2NC(=O)/C=C/C[C@@H]([C@H](C)[C@@H](OC(=O)CNC(=O)[C@@H]3CCCN3C(=O)CNC(=O)[C@H](CCCNC(N)=O)NC(=O)[C@@H](NC(=O)CCOCCOCCOCCOCCn3cc(CCC(=O)N[C@H](Cc4ccccc4)C(=O)N[C@H]4CSSCC(C(=O)N[C@H](CO)[C@@H](C)O)NC(=O)C([C@@H](C)O)NC(=O)[C@H](CCCCN)NC(=O)[C@@H](Cc5c[nH]c6ccccc56)NC(=O)[C@H](Cc5ccccc5)NC4=O)nn3)C(C)C)[C@@H](Cl)c3ccccc3)OC(=O)[C@H](CC(C)C)OC(=O)C(C)(C)CNC2=O)cc1Cl` (some centres unmarked) [Oct-Cry55-Gly conjugate] was tested. Which IC50 (AR42J cells) did it give?
The IC50 was 0.9 nM.

What about the “fold difference of IC50 on MCF7, conjugate versus cryptophycin-55-glycinate” value (MCF7 cells [2]; MCF7, 120 h incubation) of the same compound?
The value was 90 fold.

What about the IC50 (MCF7 cells [2]; SSTR2-low MCF7, 120 h incubation) of the same compound?
The IC50 was 27 nM.

For `COc1ccc(C[C@H]2NC(=O)/C=C/C[C@@H]([C@H](C)[C@@H](O)[C@@H](Cl)c3ccccc3)OC(=O)[C@H](CC(C)C)OC(=O)C(C)(C)CNC2=O)cc1Cl` [Cry-55, Cryptophycin-55], which CC50 (SK-BR3 cells; Homo sapiens, SK-BR-3, 96 h) is on record?
The CC50 was 0.076 nM.

What about the IC50 (H69 cells; Homo sapiens, NCI-H69) of the same compound?
Its IC50 is 0.1 nM.

What about the CC50 (MCF7 cells [1]; Homo sapiens, MCF7, 96 h) of the same compound?
The CC50 was 0.18 nM.

And the CC50 (HCT116 cells; Homo sapiens, HCT-116, 96 h)?
Its CC50 is 0.1 nM.

And the IC50 (H69AR cells; Homo sapiens)?
The IC50 was 0.23 nM.
